# Experimental data: patent US9526742B2, “Use of epigenome-modifying compounds for the treatment of genetic muscular diseases linked to a protein-conformational disorder” (GENETHON, priority 2012, dated 2016)
# System: R77C mutated α-sarcoglycan
# Assay: Immunofluorescence marking of α-sarcoglycan at the membrane of non-permeabilized quadri-transfected HER 911 cells
# Assay type: cell-based, human
# Conditions: 24 h treatment; for membrane localization of the R77C-mutated α-sarcoglycan protein: HER 911 cells quadri-transfected with α(R77C)-, β-, γ-, δ-sarcoglycan; for membrane addressing of the sarcoglycan complex: quadritransfected HER 911 cells
# Description: HER-911 (“Human Embryonic Retinoblast”) cells have been inoculated in vials and cultivated up to a 80% confluence in Dulbecco's modified Eagle's+GlutaMAX (Gibco, Invitrogen) medium containing 10% of fetal calf serum, 0.01 mg/ml of gentamicin, and 1% MEM Non Essential Amino Acids (Gibco, Invitrogen). The cells have been maintained in a humidified atmosphere with 5% C02, at 37° C.
# The HER-91 cells have been transfected by means of 12 μl of Fugene.6 Transfection Reagent (Roche) for 2 μg of plasmid (0.5 μg of each of the 4 sarcoglycan (SG) constructions for HER-911 cells). The plasmids expressing the SG, pcDNA3.V5-his_hα-SG, pcDNA3.V5-his_hβ-SG, pcDNA3.V5-his_hγ-SG, and pcDNA3.V5-his_hδ1-SG (transcriptional type-1 variant), are plasmids where the expression of the coding sequence of the respective sarcoglycans is under control of the CMV promoter.
# After 48 h, the cells have been treated for 24 h with 5 μM of 5-aza-2′-deoxycytidine or 1 μM of SAHA (Suberoylanilide hydroxamnic acid).
# The HER-911 cells have been fixed by incubation with 3.7% of formaldehyde for 15 min at room temperature. If necessary, a permeabilization has been performed by using 0.2% Triton X-100 for 20 min. After having been saturated with 20% fetal calf serum for 30 min, the cells have been incubated with primary antibodies at adapted dilutions (in PBS) for 1 h at room temperature. A monoclonal murine antibody specific for α-SG (NCL-A-SARC) is available from Novocastra. The cells have been washed 3 times with PBS and then incubated for 1 h with secondary antibodies diluted by 1/1,000 in PBS. Finally, the cells have been washed in PBS, mounted by using a Vectashield Mounting Medium with DAPI (Vector, H-1200), and then examined with a confocal immunofluorescence microscope (Leica).
# HER 911 human cells have been quadri-transfected with plasmids coding β-, γ-, and δ-sarcoglycans and a plasmid coding either non-mutated α-sarcoglycan (FIG. 1A and FIG. 2A), or R77C mutated α-sarcoglycan (FIGS. 1B and 1C; FIGS. 2B and 2C).
# An immunomarking has then been performed on the non-permeabilized cells by using an antibody directed against the extracellular portion of the α-sarcoglycan, which enables to visualize the protein only at the cellular membrane level and thus to compare the addressing of the mutated protein with that of the normal protein.
Structure (SMILES),"membrane localization of the R77C-mutated α-sarcoglycan protein (5 μM, FIG. 1C)",membrane addressing of the sarcoglycan complex (5 μM),"membrane localization of the R77C-mutated α-sarcoglycan protein (1 μM, FIG. 2C)",membrane addressing of the sarcoglycan complex (1 μM)
Nc1ncn([C@@H]2O[C@H](CO)[C@@H](O)[C@H]2O)c(=O)n1 [5-azacytidine],restores the membrane localization of the R77C-mutated protein,enabled to reconstitute the complex at the membrane,–,–
"O=C(CCCCCCC(=O)Nc1ccccc1)NO [SAHA, suberoylanilide hydroxamic acid]",–,–,restores the membrane localization of the R77C-mutated protein,enabled to reconstitute the complex at the membrane
